The test system of one test is Lgr5+ cells. Description: cFRET PDT of colon polyps in azoxymethane/DSS-treated GFP-Lgr5 mice. The class given is in vivo, mouse. Conditions: FIG. 4E. The procedure: To generate sporadic tumors, azoxymethane (10 mg/kg) was intraperitoneally injected into wild-type mice or GFP-Lgr5 mice. In one week after injection, mice were given 2% DSS as drinking water for 7 days. The next 7 days, the mice were given water normally. This DSS application cycle was repeated three times. Mice were randomly divided into 4 groups (n=5 per group).
Another group of 5 mice as wild-type and GFP-Lgr5 mice was set to a group that was not chemically treated. RB was intravenously injected (50 nM/mL, 0.75 ml/kg) into the wild type and GFP-Lgr5 mice of each experimental group twice a week for 7 weeks. And, in 4 hours after the RB injection, blue light (2 min) irradiation was performed via an anal penetration.
Polyp growth was monitored by endoscopy via polyp diameter measurements. After anesthesia, the mice were placed on the stage for colonoscopy. […] Each image was captured by capturing the image from the recorded video file using frame-extraction software. The tumor size was measured from the images (width×height×2). The distance-dependent magnification of the colonoscopy was calculated by imaging using a ruler in the same field.
To compare tumor sizes before and after FR-PDT, well-isolated tumors were selected. The locomotion path used in […] was recorded in detail for each tumor. The tumor location is determined based on the structure of the surrounding tissue. […]

A further test relates to GFP cells (GFP-H460). The test can be described thus: Experiment using rat cannulation, counting GFP-cancer cells in blood. The class given is in vivo. Conditions: cells pretreated with 100 μM RB, injected IV into SD rats, 473 nm 80 mW for 5 minutes at cannulated tubing. The procedure:
(1) GFP cells (GFP-H460) were seeded into two 100-mm dishes at a concentration of 1×10^7 cells/ml. On the next day, 100 μM of rose bengal (RB) was applied thereto (in the subsequent procedure, light exposure was avoided as much as possible). In 4 hours after RB treatment, the cells were harvested using trypsin, suspended in FBS pre-culture medium at 2×10^6 cells/300 μl, and placed in a 1.5 ml tube.
Six out of 10 8 weeks aged SD rats were injected in IV (tail) manner with the cell solution. The […] sections of the 5 SD rats were incised. The carotid artery and venous vein were discovered and cannulated using a 279 μm ID×609 μm OD×152 μm wall sized polyethylene tubing (BD, 427401) wet with heparin. Thus, blood flow was carried out through the tubing. Irradiation of 473 nm light with an intensity of 80 mW to the cannulated tubing site was performed for 5 minutes. The irradiated rats were weighed and incubated overnight in a constant-temperature constant-humid chamber. […]
1 ml of 0.1 μg/ml DAPI/PBST solution was added thereto. […] GFP-cancer cells were counted using a fluorescent microscope (Nikon, Diaphot 300), and the numbers of GFP-cancer cells according to the presence or absence of light irradiation were compared with each other. […]

The structures appear in SMILES notation.

Regarding `O=C1OC2(c3cc(I)c(O)c(I)c3Oc3c2cc(I)c(O)c3I)c2c(Cl)c(Cl)c(Cl)c(Cl)c21` [RB, rose bengal], the polyp growth entry in the test with Lgr5+ cells (Lgr5-EGFP-IRES-creERT2 knock-in mice compared to wild-type mice, 473 nm laser, 4F) is on record as “polyp growth was inhibited”. In addition, the number of polyps result with Lgr5+ cells (cFRET treatment) was “decreased”. The “GFP-cancer cells in blood with or without light irradiation” value in the test on GFP cells (GFP-H460) was “only GFP cells were specifically killed”.
